“Also recorded” adds a separate entry of the source.
Columns and labels:
[1] = biological target: T1, potassium channels in membrane patches of PC-3 cells (Homo sapiens, UniProt Q12791); assay: Patch clamp, cell excised inside/out membrane patches of PC-3 cells; assay type: cell-based; details: preliminary
T1 construct: endogenous in cells; host or cells: PC-3 prostate cancer cells (excised inside/out membrane patches)
Excerpt: (§1) Numerous channels are active under high (1 mmol/l) intracellular Ca^2+ concentration in the membrane patch from PC-3 cells (A), thus single channel currents cannot be resolved. In contrast, little channel activity is present in the BPH-1 membrane patch (B).
(§2) Patch clamp recording was used to further assess the role of KCNMA1.
(§3) The membrane voltage of PC-3 cells is hyperpolarized when compared with that of BPH-1 cells. Moreover, paxillin inhibited potassium channels in cell excised inside/out membrane patches of PC-3 cells, but not in membrane patches of BPH-1 cells. In cell excised inside/out membrane patches of PC-3 cells we found pronounced activity of Ca^2+ activated K^+ channels, while little channel activity was found in excised membrane patches of BPH-1 cells (FIG. 10). Removal of Ca^2+ from the cytosolic side (0 mmol/l) abolished channel activity in both membrane patches of PC-3 and BPH-1 cells. Channel activity was recovered at cytosolic Ca^2+ concentrations of 1 μmol/l (0.001). These preliminary results fit very well to the expression data of KCNMA1 obtained so far.

[2] = tested on: potassium channels in membrane patches of BPH-1 cells; assay: Patch clamp, cell excised inside/out membrane patches of BPH-1 cells; assay type: cell-based, human; details: preliminary
Excerpt: as §1, §2, §3

[3] = tested on: PC-3; assay: Growth (cell count) of PC-3 under iberiotoxin/17β-estradiol treatment; assay type: cell-based, human; details: two days
Procedure: (§4) “K” represents a control; “I” represents treatment with 0.05 μM Iberiotoxin (Sigma); “E” represents treatment with 0.1 μM Estradiol; and “E+I” represents treatment with both 0.05 μM Iberiotoxin and 0.1 μM Estradiol. Cells were grown in OPTI-MEM (Invitrogen) +0.4% Albu-max (Invitrogen) for two days.
(§5) Cell culture: As standard, the cells were grown in OPTIMEM (Invitrogen) containing 10% FCS (Amimed) and 1% Pen/Strep (Amimed). For iberiotoxin/17β-estradiol treatment 25000 cells were seeded in OPTIMEM, 10% FCS into 6 well plates (Falcon). After one day incubation, the medium was changed to OPTIMEM 1%FCS, 1% Pen/Strep. After another day of incubation the experiment was started by changing the Medium to OPTIMEM 0.4% Albumax (Invitrogen), 1% Pen/Strep containing either only solvents, 50 nM iberiotoxin (Sigma), 100 nM 17β-estradiol (Sigma), or a combination of both. After two days of incubation, the cells were collected and counted.

[4] = tested on: LNCaP; assay: Growth (cell count) of LNCaP under iberiotoxin/17β-estradiol treatment; assay type: cell-based, human; details: two days; for effect on estradiol-stimulated growth of LNCaP: 0.05 μM Iberiotoxin + 0.1 μM Estradiol
Procedure: as §4, §5

[5] = tested on: BPH-1; assay: Growth (cell count) of BPH-1 under iberiotoxin/17β-estradiol treatment; assay type: cell-based, human; details: two days; for effect on estradiol-stimulated growth of BPH-1: 0.05 μM Iberiotoxin + 0.1 μM Estradiol
Procedure: as §4, §5

[6] = tested on: whole cell conductances of PC-3 cells; assay: Whole cell patch clamp, PC-3 cells; assay type: cell-based, human; details: iberiotoxin 30 nM, preliminary
[7] = tested on: whole cell conductances of BPH-1 cells; assay: Whole cell patch clamp, BPH-1 cells; assay type: cell-based, human; details: iberiotoxin 30 nM, preliminary
[8] = 100 nM 17β-estradiol, listed as 17β-estradiol
[9] = 50 nM iberiotoxin, listed as Iberiotoxin

T1 sequence (Q12791 whole entry): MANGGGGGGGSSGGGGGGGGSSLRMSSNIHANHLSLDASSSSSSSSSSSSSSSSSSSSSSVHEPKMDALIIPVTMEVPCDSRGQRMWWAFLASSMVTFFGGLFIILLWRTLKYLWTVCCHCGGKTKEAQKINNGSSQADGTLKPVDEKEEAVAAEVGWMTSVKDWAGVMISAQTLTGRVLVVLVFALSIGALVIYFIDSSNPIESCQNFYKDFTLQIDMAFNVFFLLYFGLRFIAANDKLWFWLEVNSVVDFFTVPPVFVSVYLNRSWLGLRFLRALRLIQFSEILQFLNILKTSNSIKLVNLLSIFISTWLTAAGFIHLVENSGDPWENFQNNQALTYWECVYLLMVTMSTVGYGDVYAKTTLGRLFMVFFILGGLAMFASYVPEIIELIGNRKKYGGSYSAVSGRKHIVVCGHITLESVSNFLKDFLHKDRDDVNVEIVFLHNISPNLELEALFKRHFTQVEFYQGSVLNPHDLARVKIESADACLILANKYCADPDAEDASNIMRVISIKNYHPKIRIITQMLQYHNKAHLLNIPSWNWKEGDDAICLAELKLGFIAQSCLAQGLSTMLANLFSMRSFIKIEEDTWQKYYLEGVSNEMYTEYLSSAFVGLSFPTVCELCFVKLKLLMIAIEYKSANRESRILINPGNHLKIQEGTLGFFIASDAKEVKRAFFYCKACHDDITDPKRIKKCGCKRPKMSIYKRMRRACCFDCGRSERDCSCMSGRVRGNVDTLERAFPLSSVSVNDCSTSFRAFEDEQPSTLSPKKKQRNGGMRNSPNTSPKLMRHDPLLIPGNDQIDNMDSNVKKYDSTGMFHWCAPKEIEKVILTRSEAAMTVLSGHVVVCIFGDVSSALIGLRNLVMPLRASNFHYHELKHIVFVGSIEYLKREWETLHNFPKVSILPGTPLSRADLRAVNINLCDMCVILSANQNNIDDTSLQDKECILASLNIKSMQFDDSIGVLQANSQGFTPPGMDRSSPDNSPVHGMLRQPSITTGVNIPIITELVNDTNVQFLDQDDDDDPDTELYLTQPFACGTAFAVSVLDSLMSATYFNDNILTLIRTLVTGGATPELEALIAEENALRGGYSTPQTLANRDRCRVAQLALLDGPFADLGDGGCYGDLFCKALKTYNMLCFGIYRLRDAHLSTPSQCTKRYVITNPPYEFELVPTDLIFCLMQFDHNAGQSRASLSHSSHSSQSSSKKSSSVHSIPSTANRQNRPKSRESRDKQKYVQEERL

Question: How did the “inhibition of potassium channels in excised inside/out membrane patches of PC-3 cells” value [1] turn out when `CC(C)(O)[C@H]1O[C@H]2CC[C@@]3(C)[C@@](O)(CC[C@H]4Cc5c([nH]c6ccccc56)[C@@]43C)C2=CC1=O` [paxillin] was run?
Answer: Its value is “inhibited”.

Question: And the “inhibition of potassium channels in excised inside/out membrane patches of BPH-1 cells” value [2]?
Answer: Its value is “not”.

Question: For `C[C@]12CC[C@@H]3c4ccc(O)cc4CC[C@H]3[C@@H]1CC[C@@H]2O` [estradiol, 17β-estradiol], which “effect on growth of PC-3 (words)” value ([3]; 100 nM 17β-estradiol) is on record?
Answer: The value was “not”.

Question: And the “effect on growth of PC-3 (words)” value [3, 8]?
Answer: Its value is “no effect”.

Question: And the “effect on growth of LNCaP (words)” value ([4]; 100 nM 17β-estradiol)?
Answer: The value was “growth promoting effect”.

Question: And the “effect on growth of LNCaP (words)” value [4, 8]?
Answer: The value was “increased proliferation; also recorded: increased its growth rate”.

Question: And the “effect on growth of BPH-1 (words)” value ([5]; 100 nM 17β-estradiol)?
Answer: The value was “growth promoting effect”.

Question: And the “effect on growth of BPH-1 (words)” value [5, 8]?
Answer: The value was “increased proliferation”.

Question: How did the “reduction of the growth rate of PC-3” value ([3]; 0.05 μM Iberiotoxin, OPTI-MEM + 0.4% Albu-max) turn out when “iberiotoxin (QFTDVDCSVSKECWSVCKDLFGVDRGKCMGKKCRCYQ; Iberiotoxin; UniProt P24663 1-37, looked up)” was run?
Answer: Its value is 10-15%.

Question: What about the “effect on growth of PC-3 (words)” value ([3]; 50 nM iberiotoxin) of the same compound?
Answer: The value was “significantly decreased growth rate; also recorded: significant reduction of the growth rate; also recorded: significant growth inhibition; also recorded: could be reduced”.

Question: And the “effect on estradiol-stimulated growth of LNCaP” value [4]?
Answer: Its value is “completely reversed; also recorded: could be blocked”.

Question: What about the “effect on estradiol-stimulated growth of LNCaP” value ([4]; listed as Iberiotoxin) of the same compound?
Answer: The value was “blocked the growth stimulus”.

Question: And the “effect on growth of LNCaP (words)” value ([4]; 50 nM iberiotoxin)?
Answer: Its value is “not and no significant effect and did not react”.

Question: And the “effect on growth of LNCaP (words)” value [4, 9]?
Answer: The value was “no effect”.

Question: And the “effect on estradiol-stimulated growth of BPH-1” value [5]?
Answer: The value was “completely reversed”.

Question: What about the “effect on estradiol-stimulated growth of BPH-1” value ([5]; listed as Iberiotoxin) of the same compound?
Answer: The value was “blocked the growth stimulus”.

Question: What about the “effect on growth of BPH-1 (words)” value ([5]; 50 nM iberiotoxin) of the same compound?
Answer: Its value is “not and no significant effect”.

Question: What about the “effect on growth of BPH-1 (words)” value [5, 9] of the same compound?
Answer: Its value is “no effect”.

Question: What about the “effect on whole cell conductances of PC-3 cells” value [6] of the same compound?
Answer: Its value is “clear inhibitory effect”.

Question: What about the “effect on whole cell conductances of BPH-1 cells” value [7] of the same compound?
Answer: The value was “no significant effects”.
